Consider one compound from US20140370594A1, “BIOLOGICAL CONVERSION OF BIOMASS-DERIVED SUGARS TO VALUE ADDED CHEMICALS” (WISCONSIN ALUMNI RESEARCH FOUNDATION, priority 2013, published 2014).

One data set has as its system E. coli and yeasts. Kind of data set: Sensitivity of growth to GVL versus NaCl concentration (FIGS. 9-13). The following applies: minimal media supplemented with GVL or NaCl, aerobic. In kind it is cell-based. The source says:
(§1) Test media for E. coli and P. putida were made using MOPS minimal salts and either varying the weight percent of NaCl and GVL or varying dilutions of the aqueous product stream in water. L. casei test media were made using Chemically Defined Media for L. casei and yeast aerobic test media were made with Yeast Nitrogen Base (6.7 g/L; Difco, a wholly owned subsidiary of Becton Dickinson and Company, Franklin Lakes, N.J.). Yeast anaerobic media were made with Yeast Nitrogen Base and supplemented with Tween 80 (0.4 wt %) and amino acids (50 mg/L).
The next step was to investigate the sensitivity of various microorganisms to salt concentration and GVL concentration. This was accomplished by measuring the growth of E. coli and yeasts in minimal media supplemented with known concentrations of GVL or NaCl under aerobic conditions. The results are depicted in FIGS. 9 through 13. FIG. 9 depicts the growth characteristics of E. coli TY05 in response to increasing concentrations of GVL. FIG. 10 depicts the growth characteristics of S. cerevisiae in response to increasing concentrations of GVL. FIG. 11 depicts the growth characteristics of S. cerevisiae PE2 in response to increasing concentrations of NaCl. FIG. 12 depicts the growth characteristics of S. passalidarum NN245 in response to increasing NaCl concentration. […]

The next data set concerns yeast. As to the kind of experiment: Growth in minimal media supplemented with GVL, aerobic (FIGS. 9-13). In kind it is cell-based. The following applies: GVL concentrations of about 2% (wt/vol) and less, minimal medium. On the procedure:
Yeast cultures were picked from single colonies and grown aerobically overnight in rich YPD broth (5 mL) (Sigma-Aldrich, St. Louis, Mo.) at 30° C. and 250 rpm. The yeast tested were Saccharomyces cerevisiae PE2 (Lallemand, Inc., Montreal, Quebec, Canada; see also Silva-Filho E A, Melo H F, Antunes D F, Santos S K B, Resende A M, Simões D A, Morais M A Jr, “Isolation by genetic and physiological characteristics of a fuel-ethanol fermentative Saccharomyces cerevisiae strain with potential for genetic manipulation,” J Ind Microbiol Biotechnol 2005, 32:481-486), Spathaspora passalidarum NN245 (ARS Culture Collection, NRRL Y-50740), Scheffersomyces stipitis 7124 (ATCC® 58376), and Scheffersomyces stipitis 6054 (ATCC® 58785).
For the aerobic test media growth experiments, an overnight culture was used to inoculate test media (2 mL) to an OD600 of 0.01. The test cultures were then incubated for 40 hours under the same conditions. A final OD600 was measured after the 40-hour incubation period.
Test media for E. coli and P. putida were made using MOPS minimal salts and either varying the weight percent of NaCl and GVL or varying dilutions of the aqueous product stream in water. […]

Another data set relates to E. coli. The data set is described as above. In kind it is cell-based, Escherichia coli. The following applies: GVL concentrations of about 2% (wt/vol) and less, minimal medium. As for the experimental part:
Overnight cultures of E. coli were started from single colonies picked into LB (5 mL) and incubated at 37° C. […] with 250 rpm shaking. The overnight cultures were used to inoculate test media (2 mL) to an OD600 (optical density at 600 nm) of 0.01. These cultures were then incubated as described below. The final OD600 of each culture was measured after 24 hours of incubation.
as §1
The next step was to investigate the sensitivity of various microorganisms to salt concentration and GVL concentration. This was accomplished by measuring the growth of E. coli and yeasts in minimal media supplemented with known concentrations of GVL or NaCl under aerobic conditions. The results are depicted in FIGS. 9 through 13. FIG. 9 depicts the growth characteristics of E. coli TY05 in response to increasing concentrations of GVL. […]

In the case of `CC1CCC(=O)O1` (stereo not drawn) [GVL, gamma-valerolactone], the “impact of concentration on cell growth as compared to NaCl” value in the data set with E. coli and yeasts is given as “stronger impact on cell growth”. Besides, the “growth in the presence of GVL” value with yeast and with E. coli was “very significant growth” each time.
